Patent publication EP1137644B9, “BENZOFURAN DERIVATIVES, THEIR PREPARATION AND USE” (H. Lundbeck A/S, priority 1998, dated 2000)
Counter-ions that a name gives are not always drawn.

test system: serotonin reuptake; experiment: Inhibition of 3H-5-HT uptake into rat brain synaptosomes; assay type: biochemical; conditions: ^3H-5-HT accumulation into whole rat brain synaptosomes
Method: Inhibition of ^3H-5-HT Uptake Into Rat Brain Synaptosomes
Using this method, the ability of drugs to inhibit the accumulation of ^3H-5-HT into whole rat brain synaptosomes is determined in vitro. The assay was performed as described by Hyttel, J., Psychopharmacology 1978, 60, 13.

SMILES | IC50
CN(CCCCc1cccc2c1OCCO2)CCCC1(c2ccc(F)cc2)OCc2cc(C#N)ccc21 (single isomer, unassigned; (+)) [Compound 1a, (+)-1-[3-[[4-(1,4-Benzodioxan-5-yl)butyl]methylamino]propyl]-1-(4-fluorophenyl)-1,3-dihydroisobenzofuran-5-carbonitrile] | 60 nM
CN(CCCc1cccc2c1OCCO2)CCCC1(c2ccc(F)cc2)OCc2cc(C#N)ccc21 (single isomer, unassigned; (+)) [Compound 1b, (+)-1-[3-[[3-(1,4-Benzodioxan-5-yl)propyl]methylamino]propyl]-1-(4-fluorophenyl)-1,3-dihydroisobenzofuran-5-carbonitrile oxalate] | 13 nM
CN(CCCC1(c2ccc(F)cc2)OCc2cc(C#N)ccc21)CCc1cccc2c1OCCO2 (stereo not shown) [Compound 1c, 1-[3-[[2-(1,4-Benzodioxan-5-yl)ethyl]methylamino]propyl]-1-(4-fluorophenyl)-1,3-dihydroisobenzofuran-5-carbonitrile oxalate] | 85 nM
COc1ccccc1N1CCN(CCCC2(c3ccc(F)cc3)OCc3cc(C#N)ccc32)CC1 (stereo not shown) [Compound 2a, 1-(4-Fluorophenyl)-1-[3-[4-(2-methoxyphenyl)piperazinyl]propyl]-1,3-dihydroisobenzofuran-5-carbonitrile] | 340 nM
N#Cc1ccc2c(c1)COC2(CCCN1CCC(c2c[nH]c3cc(Cl)ccc23)CC1)c1ccc(F)cc1 (stereo not shown) [Compound 2o, 1-[3-[4-(6-chloro-1H-Indol-3-yl)piperidinyl]propyl]-1-(4-fluorophenyl)-1,3-dihydroisobenzofuran-5-carbonitrile] | 31 nM
CN(CCCC1(c2ccc(F)cc2)OCc2cc(C#N)ccc21)CCc1c[nH]c2c(F)cccc12 (stereo not shown) [Compound 12b, 1-[3-[[2-(7-Fluoro-1H-indol-3-yl)ethyl]methylamino]propyl]-1-(4-fluorophenyl)-1,3-dihydroisobenzofuran-5-carbonitrile] | 10 nM

test system: Human 5-HT1A Receptors; experiment: Inhibition of 3H-5-CT binding to human 5-HT1A receptors; conditions: at 100 nM; cloned human 5-HT1A receptors expressed in HeLa cells (HA7)
Method: The affinity of the compounds of the invention to 5-HT1A receptors was determined by measuring the inhibition of binding of a radioactive ligand at 5-HT1A receptors as described in the following test:
Inhibition of ^3H-5-CT Binding to Human 5-HT1A Receptors
By this method the inhibition by drugs of the binding of the 5-HT1A agonist ^3H-5-carboxamido tryptamine (^3H-5-CT) to cloned human 5-HT1A receptors stably expressed in transfected HeLa cells (HA7) (Fargin, A. et al, J. Biol. Chem., 1989, 264, 14848) is determined in vitro. The assay was performed as a modification of the method described by Harrington, M.A. et al, J. Pharmacol. Exp. Ther., 1994, 268, 1098. Human 5-HT1A receptors (40 µg of cell homogenate) were incubated for 15 minutes at 37 °C in 50 mM Tris buffer at pH 7.7 in the presence of ^3H-5-CT. Non-specific binding was determined by including 10 µM of metergoline. The reaction was terminated by rapid filtration through Unifilter GF/B filters on a Tomtec Cell Harvester. Filters were counted in a Packard Top Counter.

SMILES | Inhibition of ^3H- 5-CT binding % inhibition at 100 nM
C=CCN(CCCc1cccc(OC)c1)CCCC1(c2ccc(F)cc2)OCc2cc(C#N)ccc21 (stereo not shown) [Compound 4l, 1-(4-Fluorophenyl)-1-[3-[[3-(3-methoxyphenyl)propyl](prop-2-en-1-yl)amino]propyl]-1,3-dihydroisobenzofuran-5-carbonitrile] | 76% inh. at 100 nM
COc1ccccc1OCCCN(C)CCCC1(c2ccc(F)cc2)OCc2cc(C#N)ccc21 (stereo not shown) [Compound 4m, 1-(4-Fluorophenyl)-1-[3-[[3-(2-methoxyphenoxy)propyl]methylamino]propyl]-1,3-dihydroisobenzofuran-5-carbonitrile] | 65% inh. at 100 nM
C#CCN(CCCc1c[nH]c2ccccc12)CCCC1(c2ccc(F)cc2)OCc2cc(C#N)ccc21 (stereo not shown) [Compound 4u, 1-[3-[[3-(1H-Indol-3-yl)propyl](prop-2-yn-1-yl)amino]propyl]-1-(4-fluorophenyl)-1,3-dihydroisobenzofuran-5-carbonitrile] | 58% inh. at 100 nM

same assay, conditions: cloned human 5-HT1A receptors expressed in HeLa cells (HA7), 15 minutes at 37 °C, pH 7.7

SMILES | IC50
CN(CCCCc1cccc2c1OCCO2)CCCC1(c2ccc(F)cc2)OCc2cc(C#N)ccc21 (single isomer, unassigned; (+)) [Compound 1a, (+)-1-[3-[[4-(1,4-Benzodioxan-5-yl)butyl]methylamino]propyl]-1-(4-fluorophenyl)-1,3-dihydroisobenzofuran-5-carbonitrile] | 39 nM
